In patent US10508109B2 (priority 2015, dated 2019):
Counter-ions that a name gives are not always drawn. Like-named read-outs stand apart in the source and are kept apart here.

How the values were obtained:
A549 = experiment: Cell-based assay, anti-proliferative activity (Cell Counting Kit-8, 72 hours); conditions: Homo sapiens, read-out: IC50 (μM) A549
Procedure, shortened: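 After compound exposure of cells in 96-well plates, growth was measured colorimetrically and converted into IC50 values.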

SUV39H2 = SUV39H2 (Homo sapiens (Human), UniProt Q9H5I1); conditions: read-out: IC50 (μM) Suv 39H2 assay
SUV39H2, sequence (Q9H5I1 whole entry): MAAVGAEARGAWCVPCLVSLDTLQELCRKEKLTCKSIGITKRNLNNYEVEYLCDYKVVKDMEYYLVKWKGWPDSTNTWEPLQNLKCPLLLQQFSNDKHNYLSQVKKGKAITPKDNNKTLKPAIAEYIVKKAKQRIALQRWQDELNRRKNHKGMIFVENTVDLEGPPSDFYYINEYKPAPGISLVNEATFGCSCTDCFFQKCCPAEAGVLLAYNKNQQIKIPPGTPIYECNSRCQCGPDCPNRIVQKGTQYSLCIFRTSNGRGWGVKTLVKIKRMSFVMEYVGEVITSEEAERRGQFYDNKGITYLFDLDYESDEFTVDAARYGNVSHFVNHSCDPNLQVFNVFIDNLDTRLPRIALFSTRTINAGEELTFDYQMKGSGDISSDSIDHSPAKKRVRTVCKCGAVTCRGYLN

HFL1 = experiment: Cell-based assay, anti-proliferative activity (Cell Counting Kit-8, 72 hours); conditions: Homo sapiens, read-out: IC50 (μM) HFL1
Procedure, shortened: (§1)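 Anti-proliferative IC50 obtained from 96-well cultures treated 72 h with inhibitor at 0–100 micro-M, growth assessed by a CCK-8 colorimetric readout.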

CCD-18Co = experiment: as above; conditions: Homo sapiens, read-out: IC50 (μM) CCD-18Co
Procedure, shortened: as §1

PC14 = experiment: as above; conditions: Homo sapiens, read-out: IC50 (μM) PC14
Procedure, shortened: as §1

HCT-116 = experiment: as above; conditions: Homo sapiens, read-out: IC50 (μM) HCT-116
Procedure, shortened: as §1

[1] = A549 cells, 72 hours, Cell Counting Kit-8
[2] = HFL1 cells, 72 hours, Cell Counting Kit-8
[3] = CCD-18Co cells, 72 hours, Cell Counting Kit-8
[4] = PC-14, PC14 cells, 72 hours, Cell Counting Kit-8
[5] = HCT-116 cells, 72 hours, Cell Counting Kit-8
[6] = A549 cells, Cell Counting Kit-8, 72 hours
[7] = HFL1 cells, Cell Counting Kit-8, 72 hours
[8] = CCD-18Co cells, Cell Counting Kit-8, 72 hours
[9] = PC-14, PC14 cells, Cell Counting Kit-8, 72 hours
[10] = HCT-116 cells, Cell Counting Kit-8, 72 hours

Row | SMILES | IC50 (A549; [1]) | IC50 (SUV39H2; enzyme assay) | IC50 (HFL1; [2]) | IC50 (CCD-18Co; [3]) | IC50 (PC14; [4]) | IC50 (HCT-116; [5]) | IC50 (A549; [6]) | IC50 (HFL1; [7]) | IC50 (CCD-18Co; [8]) | IC50 (PC14; [9]) | IC50 (HCT-116; [10]) | IC50 (A549; A549, 72 h) | IC50 (SUV39H2) | IC50 (HFL1; HFL1, 72 h) | IC50 (CCD-18Co; CCD-18Co, 72 h) | IC50 (PC14; PC-14, 72 h) | IC50 (HCT-116; HCT-116, 72 h)
1 | COc1cc(OC)c(-c2cn3ccc(N4CC[C@H](NCc5cccnc5)C4)cc3n2)cc1Cl [Example 300, (S)-1-(2-(5-chloro-2,4-dimethoxyphenyl)imidazo[1,2-a]pyridin-7-yl)-N-(pyridin-3-ylmethyl)pyrrolidin-3-amine] | 6 µM | 0.0127 µM | 7.1 µM | 6.1 µM | 3.5 µM | 4.7 µM |  |  |  |  |  |  |  |  |  |  | 
2 | COc1cc(OC)c(-c2cn3ccc(N4CCN(CCF)CC4)cc3n2)cc1Cl [Example 104, 2-(5-chloro-2,4-dimethoxyphenyl)-7-(4-(2-fluoroethyl)piperazin-1-yl)-imidazo[1,2-a]pyridine] |  | 0.00666 µM |  |  |  |  | 6.7 µM | 4.2 µM | 8.9 µM | 4.7 µM | 8.3 µM |  |  |  |  |  | 
3 | COc1cc(OCCCN(C)C)c(-c2cn3ccc(N4CCN(C(=O)OC(C)(C)C)CC4)cc3n2)cc1Cl [Example 127, tert-butyl 4-(2-{5-chloro-2-[3-(dimethylamino)propoxy]-4-methoxyphenyl}imidazo[1,2-a]pyridin-7-yl)piperazine-1-carboxylate] |  | 0.0995 µM |  |  |  |  | 1.6 µM | 0.5 µM | 0.83 µM | 1.6 µM | 1.2 µM |  |  |  |  |  | 
4 | COc1cc(OCCCN(C)C)c(-c2cn3ccc(N4CCN(S(=O)(=O)C5CC5)CC4)cc3n2)cc1Cl [Example 160, 3-(4-Chloro-2-{7-[4-(cyclopropylsulfonyl)piperazin-1-yl]imidazo[1,2-a]pyridin-2-yl}-5-methoxyphenoxy)-N,N-dimethylpropan-1-amine] |  | 0.0277 µM |  |  |  |  | 1.4 µM | 1.5 µM | 2.9 µM | 1.9 µM | 1.2 µM |  |  |  |  |  | 
5 | COc1cc(OC)c(-c2cn3ccc(N4CCN(CCO)CC4)cc3n2)cc1Cl [Example 43, 2-(4-(2-(5-chloro-2,4-dimethoxyphenyl)imidazo[1,2-a]pyridine-7-yl)piperazin-1-yl)ethanol dihydrochloride] |  |  |  |  |  |  |  |  |  |  |  | 14 µM | 0.00854 µM | 6.9 µM | 11 µM | 9.8 µM | 14 µM
6 | COc1cc(OC)c(-c2cn3ccc(N4CC[C@H](NC(=O)OC(C)(C)C)C4)cc3n2)cc1Cl [Example 44, (S)-tert-butyl (1-(2-(5-chloro-2,4-dimethoxyphenyl)imidazo[1,2-a]pyridin-7-yl)-pyrrolidin-3-yl)carbamate] |  | 0.00982 µM |  |  |  |  | 3 µM | 1.1 µM | 2.2 µM | 1.6 µM | 3.4 µM |  |  |  |  |  | 
7 | COc1cc(OC)c(-c2cn3ccc(N4CCN(CCN5CCCCC5)CC4)cc3n2)cc1Cl [Example 135, 2-(5-chloro-2,4-dimethoxyphenyl)-7-(4-(2-(piperidin-1-yl)ethyl)piperazin-1-yl)imidazo[1,2-a]pyridine] |  | 0.0128 µM |  |  |  |  | 3 µM | 4.8 µM | 2.8 µM | 2.6 µM | 2.4 µM |  |  |  |  |  | 
8 | COc1cc(OC)c(-c2cn3ccc(N4CC[C@H](NCc5ccc([N+](=O)[O-])cc5)C4)cc3n2)cc1Cl [Example 304, (S)-1-(2-(5-chloro-2,4-dimethoxyphenyl)imidazo[1,2-a]pyridin-7-yl)-N-(4-nitrobenzyl)pyrrolidin-3-amine] | 0.87 µM | 0.00888 µM | 0.7 µM | 0.49 µM | 0.88 µM | 0.52 µM |  |  |  |  |  |  |  |  |  |  | 
9 | COc1cc(OC)c(-c2cn3ccc(N4CCN(P(=O)(OC)OC)CC4)cc3n2)cc1Cl [Example 203, dimethyl {4-[2-(5-chloro-2,4-dimethoxyphenyl)imidazo[1,2-a]pyridin-7-yl]piperazin-1-yl}phosphonate] |  | 0.00177 µM |  |  |  |  |  |  |  |  |  | 3.9 µM |  | 4 µM | 6 µM | 1.8 µM | 5.1 µM
10 | COc1cc(OC)c(-c2cn3ccc(N4CCC(NS(C)(=O)=O)CC4)cc3n2)cc1Cl [Example 128, N-{1-[2-(5-chloro-2,4-dimethoxyphenyl)imidazo[1,2-a]pyridin-7-yl]piperidin-4-yl}methanesulfonamide] |  | 0.00883 µM |  |  |  |  | 1.5 µM | 0.58 µM | 1.1 µM | 1.8 µM | 4.5 µM |  |  |  |  |  | 
11 | COc1cc(OC)c(-c2cn3ccc(N4CCC(NC(=O)OC(C)(C)C)C4)cc3n2)cc1Cl (stereo not drawn) [Example 23, tert-butyl{1-[2-(5-chloro-2,4-dimethoxyphenyl)imidazo[1,2-a]pyridin-7-yl]pyrrolidin-3-yl}carbamate] |  | 0.00635 µM |  |  |  |  | 2.4 µM | 1.2 µM | 2.8 µM | 1.7 µM | 1.8 µM |  |  |  |  |  | 
12 | COc1cc(OC)c(-c2cn3ccc(N4CCC(NS(=O)(=O)C5CC5)C4)cc3n2)cc1Cl (stereo not drawn) [Example 63, N-(1-(2-(5-chloro-2,4-dimethoxyphenyl)imidazo[1,2-a]pyridine-7-yl)pyrrolidin-3-yl)cyclopropanesulfonamide] |  | 0.00395 µM |  |  |  |  | 3 µM | 1.7 µM | 3.8 µM | 2.1 µM | 1.6 µM |  |  |  |  |  | 
13 | COc1cc(OC)c(-c2cn3cc(NCCNC(C)=O)c(N4CCOCC4)cc3n2)cc1Cl [Example 224, N-(2-((2-(5-chloro-2,4-dimethoxyphenyl)-7-morpholinoimidazo[1,2-a]-pyridin-6-yl)amino)ethyl)acetamide] |  | 0.0337 µM |  |  |  |  |  |  |  |  |  | 10 µM |  | 10 µM | 10 µM | 10 µM | 10 µM
14 | COc1cc(OCCCN(C)C)c(-c2cn3ccc(N4CCC(NC(=O)C(C)(C)C)CC4)cc3n2)cc1Cl [Example 162, N-(1-(2-(5-chloro-2-(3-(dimethylamino)propoxy)-4-methoxyphenyl)-imidazo[1,2-a]pyridin-7-yl)piperidin-4-yl)pivalamide] |  | 0.0211 µM |  |  |  |  | 2.8 µM | 2.1 µM | 5 µM | 2.1 µM | 3.3 µM |  |  |  |  |  | 
15 | CNc1ccn2cc(-c3cc(Cl)c(OC)cc3OC)nc2c1 [Example 6, 2-(5-chloro-2,4-dimethoxyphenyl)-N-methylimidazo[1,2-a]pyridin-7-amine hydrobromide] |  | 0.00943 µM |  |  |  |  |  |  |  |  |  | 2.2 µM |  | 1 µM | 2.7 µM | 1.4 µM | 1.7 µM
16 | COc1cc(OC)c(-c2cn3ccc(-c4ccc(C(=O)NC5CCNCC5)cc4)cc3n2)cc1Cl [Example 268, 4-(2-(5-chloro-2,4-dimethoxyphenyl)imidazo[1,2-a]pyridin-7-yl)-N-(piperidin-4-yl)benzamide] | 4.3 µM | 0.0383 µM | 3.8 µM | 4.3 µM | 3 µM | 2.8 µM |  |  |  |  |  |  |  |  |  |  | 
17 | COc1cc(OC)c(-c2cn3ccc(N4CC[C@H](NCc5ccc(C)cc5)C4)cc3n2)cc1Cl [Example 305, (S)-1-(2-(5-chloro-2,4-dimethoxyphenyl)imidazo[1,2-a]pyridin-7-yl)-N-(4-methylbenzyl)pyrrolidin-3-amine] | 1.1 µM | 0.0117 µM | 0.67 µM | 0.82 µM | 0.99 µM | 0.59 µM |  |  |  |  |  |  |  |  |  |  | 
18 | COc1cc(OC)c(-c2cn3ccc(N4CCN(CCN5CCNCC5)CC4)cc3n2)cc1Cl [Example 142, 2-(5-chloro-2,4-dimethoxyphenyl)-7-(4-(2-(piperazin-1-yl)ethyl)piperazin-1-yl)imidazo-[1,2-a]pyridine] |  | 0.00785 µM |  |  |  |  | 6.6 µM | 7.1 µM | 7.8 µM | 8.7 µM | 8.2 µM |  |  |  |  |  | 
19 | COc1cc(OC)c(-c2cn3ccc(N4CCN(CC#N)CC4)cc3n2)cc1Cl [Example 95, 2-(4-(2-(5-chloro-2,4-dimethoxyphenyl)imidazo[1,2-a]pyridin-7-yl)piperazin-1-yl)acetonitrile] |  | 0.00807 µM |  |  |  |  | 2.9 µM | 4.1 µM | 5.3 µM | 3 µM | 3.4 µM |  |  |  |  |  | 
20 | COc1cc(OC)c(-c2cn3ccc(N4CCNCC4)nc3n2)cc1Cl [Example 153, 2-(5-chloro-2,4-dimethoxyphenyl)-7-(piperazin-1-yl)imidazo[1,2-a]-pyrimidine] |  | 0.0526 µM |  |  |  |  | 10 µM | 5.3 µM | 11 µM | 4.1 µM | 8.6 µM |  |  |  |  |  | 
21 | CCCS(=O)(=O)N1CCN(c2ccn3cc(-c4cc(Cl)c(OC)cc4OC)nc3c2)CC1 [Example 170, 2-(5-chloro-2,4-dimethoxyphenyl)-7-[4-(propylsulfonyl)piperazin-1-yl]imidazo[1,2-a]pyridine] |  | 0.0219 µM |  |  |  |  | 1.7 µM | 1.9 µM | 2.6 µM | 1.6 µM | 2.1 µM |  |  |  |  |  | 
